From PubChem BioAssay (NCI)
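Compound exposure: 48 hours, 5 concentrations, 96-well plates. At the GI50, growth is halved. The concentration for full growth arrest is given as TGI.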

Key:
Experiment in all cases: NCI anticancer screen, dose series, 48 h
786-0 renal = system: 786-0 renal
A498 renal = system: A498 renal
A549 NSCLC = system: A549 NSCLC
ACHN renal = system: ACHN renal
BT-549 breast = system: BT-549 breast
CAKI-1 renal = system: CAKI-1 renal
CCRF-CEM leukemia = system: CCRF-CEM leukemia
COLO 205 colon = system: COLO 205 colon
DU-145 prostate = system: DU-145 prostate
EKVX NSCLC = system: EKVX NSCLC
HCC-2998 colon = system: HCC-2998 colon
HCT-116 colon = system: HCT-116 colon
HCT-15 colon = system: HCT-15 colon
HL-60(TB) leukemia = system: HL-60(TB) leukemia
HOP-62 NSCLC = system: HOP-62 NSCLC
HS 578T breast = system: HS 578T breast
HT29 colon = system: HT29 colon
IGROV1 ovarian = system: IGROV1 ovarian
K-562 leukemia = system: K-562 leukemia
KM12 colon = system: KM12 colon
LOX IMVI melanoma = system: LOX IMVI melanoma
M14 melanoma = system: M14 melanoma
MALME-3M melanoma = system: MALME-3M melanoma
MCF7 breast = system: MCF7 breast
MDA-MB-231 breast = system: MDA-MB-231 breast
MOLT-4 leukemia = system: MOLT-4 leukemia
NCI-H226 lung = system: NCI-H226 lung
NCI-H23 lung = system: NCI-H23 lung
NCI-H460 lung = system: NCI-H460 lung
NCI-H522 lung = system: NCI-H522 lung
NCI/ADR-RES ovarian = system: NCI/ADR-RES ovarian
OVCAR-3 ovarian = system: OVCAR-3 ovarian
OVCAR-4 ovarian = system: OVCAR-4 ovarian
OVCAR-5 ovarian = system: OVCAR-5 ovarian
OVCAR-8 ovarian = system: OVCAR-8 ovarian
PC-3 prostate = system: PC-3 prostate
RPMI-8226 leukemia = system: RPMI-8226 leukemia
RXF 393 renal = system: RXF 393 renal
SF-268 CNS = system: SF-268 CNS
SF-295 CNS = system: SF-295 CNS
SF-539 CNS = system: SF-539 CNS
SK-MEL-2 melanoma = system: SK-MEL-2 melanoma
SK-MEL-28 melanoma = system: SK-MEL-28 melanoma
SK-MEL-5 melanoma = system: SK-MEL-5 melanoma
SK-OV-3 ovarian = system: SK-OV-3 ovarian
SN12C renal = system: SN12C renal
SNB-19 CNS = system: SNB-19 CNS
SNB-75 CNS = system: SNB-75 CNS
SR leukemia = system: SR leukemia
SW-620 colon = system: SW-620 colon
T-47D breast = system: T-47D breast
TK-10 renal = system: TK-10 renal
U251 CNS = system: U251 CNS
UACC-257 melanoma = system: UACC-257 melanoma
UACC-62 melanoma = system: UACC-62 melanoma
UO-31 renal = system: UO-31 renal

What does the source list for CCOC(=O)n1cc(C2=C(c3cn(C)c4ccccc34)COC2=O)c2ccccc21?
GI50 (786-0 renal): 268 nM; TGI (786-0 renal): 15800 nM; GI50 (A498 renal): 39.1 nM; TGI (A498 renal): 644 nM; GI50 (A549 NSCLC): 166 nM; TGI (A549 NSCLC): > 100000 nM; GI50 (ACHN renal): 79.5 nM; TGI (ACHN renal): > 100000 nM; GI50 (BT-549 breast): 145 nM; TGI (BT-549 breast): 11100 nM; GI50 (CAKI-1 renal): 49.2 nM; TGI (CAKI-1 renal): 18500 nM; GI50 (CCRF-CEM leukemia): 218 nM; TGI (CCRF-CEM leukemia): > 100000 nM; GI50 (COLO 205 colon): 241 nM; TGI (COLO 205 colon): 2410 nM; GI50 (DU-145 prostate): 391 nM; TGI (DU-145 prostate): > 58000 nM; GI50 (EKVX NSCLC): 177 nM; TGI (EKVX NSCLC): > 100000 nM; GI50 (HCC-2998 colon): 167 nM; TGI (HCC-2998 colon): > 100000 nM; GI50 (HCT-116 colon): 51.5 nM; TGI (HCT-116 colon): 16800 nM; GI50 (HCT-15 colon): 38.2 nM; TGI (HCT-15 colon): > 63000 nM; GI50 (HL-60(TB) leukemia): 124 nM; TGI (HL-60(TB) leukemia): 511 nM; GI50 (HOP-62 NSCLC): 159 nM; TGI (HOP-62 NSCLC): 20400 nM; GI50 (HS 578T breast): 116 nM; TGI (HS 578T breast): 21100 nM; GI50 (HT29 colon): 46.4 nM; GI50 (IGROV1 ovarian): 56.4 nM; TGI (IGROV1 ovarian): > 45800 nM; GI50 (K-562 leukemia): 36.5 nM; TGI (K-562 leukemia): > 32200 nM; GI50 (KM12 colon): 47.1 nM; TGI (KM12 colon): > 100000 nM; GI50 (LOX IMVI melanoma): 132 nM; TGI (LOX IMVI melanoma): > 96600 nM; GI50 (M14 melanoma): 47.8 nM; TGI (M14 melanoma): > 100000 nM; GI50 (MALME-3M melanoma): 50.8 nM; TGI (MALME-3M melanoma): > 100000 nM; GI50 (MCF7 breast): 32 nM; TGI (MCF7 breast): > 100000 nM; GI50 (MDA-MB-231 breast): 347 nM; TGI (MDA-MB-231 breast): > 70500 nM; GI50 (MOLT-4 leukemia): 380 nM; TGI (MOLT-4 leukemia): > 48400 nM; GI50 (NCI-H226 lung): 452 nM; TGI (NCI-H226 lung): > 39000 nM; GI50 (NCI-H23 lung): 436 nM; TGI (NCI-H23 lung): 35500 nM; GI50 (NCI-H460 lung): 371 nM; TGI (NCI-H460 lung): > 100000 nM; GI50 (NCI-H522 lung): 27.8 nM; TGI (NCI-H522 lung): 1020 nM; GI50 (NCI/ADR-RES ovarian): 53.1 nM; GI50 (OVCAR-3 ovarian): 39.1 nM; TGI (OVCAR-3 ovarian): 277 nM; GI50 (OVCAR-4 ovarian): 69.2 nM; TGI (OVCAR-4 ovarian): > 100000 nM; GI50 (OVCAR-5 ovarian): 462 nM; TGI (OVCAR-5 ovarian): > 100000 nM; GI50 (OVCAR-8 ovarian): 312 nM; TGI (OVCAR-8 ovarian): > 100000 nM; GI50 (PC-3 prostate): 162 nM; TGI (PC-3 prostate): > 100000 nM; GI50 (RPMI-8226 leukemia): 143 nM; GI50 (RXF 393 renal): 35.6 nM; TGI (RXF 393 renal): 377 nM; GI50 (SF-268 CNS): 1020 nM; TGI (SF-268 CNS): 62900 nM; GI50 (SF-295 CNS): 46.4 nM; TGI (SF-295 CNS): 11000 nM; GI50 (SF-539 CNS): 119 nM; TGI (SF-539 CNS): 584 nM; GI50 (SK-MEL-2 melanoma): 500 nM; TGI (SK-MEL-2 melanoma): > 86100 nM; GI50 (SK-MEL-28 melanoma): 1030 nM; TGI (SK-MEL-28 melanoma): > 100000 nM; GI50 (SK-MEL-5 melanoma): 35.9 nM; TGI (SK-MEL-5 melanoma): 393 nM; GI50 (SK-OV-3 ovarian): 1970 nM; TGI (SK-OV-3 ovarian): 56800 nM; GI50 (SN12C renal): 306 nM; TGI (SN12C renal): > 100000 nM; GI50 (SNB-19 CNS): 259 nM; TGI (SNB-19 CNS): > 63200 nM; GI50 (SNB-75 CNS): 24.8 nM; TGI (SNB-75 CNS): 1220 nM; GI50 (SR leukemia): 44.9 nM; TGI (SR leukemia): 16400 nM; GI50 (SW-620 colon): 72.4 nM; TGI (SW-620 colon): > 100000 nM; GI50 (T-47D breast): 338 nM; TGI (T-47D breast): > 100000 nM; GI50 (TK-10 renal): 10000 nM; TGI (TK-10 renal): 31000 nM; GI50 (U251 CNS): 274 nM; TGI (U251 CNS): 22100 nM; GI50 (UACC-257 melanoma): 3520 nM; TGI (UACC-257 melanoma): > 100000 nM; GI50 (UACC-62 melanoma): 59.9 nM; TGI (UACC-62 melanoma): > 55600 nM; GI50 (UO-31 renal): 78.1 nM; TGI (UO-31 renal): > 100000 nM
